Legend:
[1] = molecular target: T1, PI3Kδ kinase (p110δ/p85α) (Homo sapiens, UniProt O00329); experiment: Activity of PI3Kδ kinase by ADP-Glo method; assay type: biochemical; settings: 17 nM kinase, 50 μM PIP2, 25 μM ATP
T1 construct: purchased Millipore 14-604-K
Procedure: Activity of PI3Kδ kinase was tested by ADP-Glo method. ADP-Glo was obtained from Promega (#V9101). p110δ/p85α was obtained from Millipore (#14-604-K). The IC50 of each of the compounds was evaluated by testing the compound at 10 concentrations. The starting concentration was 1 μM, and then a 3-fold serial dilution was performed. Buffer solutions for the testing were 50 mM HEPES pH 7.5, 3 mM MgCl2, 1 mM EGTA, 100 mM NaCl, 0.03% CHAPS, and 2 mM DTT. The final concentration of the PI3Kδ kinase was 17 nM; the final concentration of PIP2 was 50 μM; and the final concentration of ATP was 25 μM.
1. Preparation of 10 μL of kinase reaction solution: 2.5 μL of test compound solution, 2.5 μL of kinase solution, and 5 μL of substrate solution were added to each well of a 384-well plate (Corning #4512).
2. The 384-well plate was covered and incubated at room temperature for 60 minutes.
3. 5 μL of reaction solution was transferred from each well to the wells of a new 384-well plate.
4. 5 μL of ADP-Glo reagent was added to the wells of the 384-well plate to terminate the reaction.
5. The 384-well plate was shaken gently on a shaking machine. 6. 10 μL of kinase detection reagent was added to each of the wells, followed by shaking for 1 minute and allowing to standing at room temperature for 30 minutes.
8. The luminescence values of the sample were read using Synegy. 9. Data were processed using Excel and was curve-fitted using XLFit software to obtain the IC50 value of each of the compounds (Table 1).

lymphoma cell SU-DHL-6 = experiment: CellTiter-Glo inhibition of proliferation of lymphoma cell SU-DHL-6; assay type: cell-based; settings: Homo sapiens, 72 hours
Procedure: CellTiter-Glo testing method was used to test the inhibition of the proliferation of lymphoma cell SU-DHL-6 (ATCC, Catalog number: CRL-2959) by the compounds. The cell culture solution used in the test was RPMI1640 (Invitrogen, Catalog number: 11875-093). 10% fetal calf serum (Invitrogen, Catalog number: 10099-141) was used in the test.
100 μL of culture solution containing 15000 cells was distributed to wells of a 96-well plate (Corning #3903). The plate was placed in a carbon dioxide incubator overnight. 0.5 μL of the compound (which was prepared using DMSO to have eight continuous concentration gradients) to be tested was added to each of the wells the next day. Each concentration was set with two replicates, and a well without cell (blank control) and a DMSO-well (solvent control). After dosing, the cells were cultured at 37° C. in 5% CO2 atmosphere for 72 hours. At last, 100 μL of CellTiter-Glo agent (Promega, Catalog number: G7571) was added to each of the wells. Luminescence signal was detected using Flex Station3 (Molecular Devices), and the IC50 value of each of the compounds inhibiting cell proliferation was calculated using XLfit software (Table 1).

T1 sequence (O00329 whole entry): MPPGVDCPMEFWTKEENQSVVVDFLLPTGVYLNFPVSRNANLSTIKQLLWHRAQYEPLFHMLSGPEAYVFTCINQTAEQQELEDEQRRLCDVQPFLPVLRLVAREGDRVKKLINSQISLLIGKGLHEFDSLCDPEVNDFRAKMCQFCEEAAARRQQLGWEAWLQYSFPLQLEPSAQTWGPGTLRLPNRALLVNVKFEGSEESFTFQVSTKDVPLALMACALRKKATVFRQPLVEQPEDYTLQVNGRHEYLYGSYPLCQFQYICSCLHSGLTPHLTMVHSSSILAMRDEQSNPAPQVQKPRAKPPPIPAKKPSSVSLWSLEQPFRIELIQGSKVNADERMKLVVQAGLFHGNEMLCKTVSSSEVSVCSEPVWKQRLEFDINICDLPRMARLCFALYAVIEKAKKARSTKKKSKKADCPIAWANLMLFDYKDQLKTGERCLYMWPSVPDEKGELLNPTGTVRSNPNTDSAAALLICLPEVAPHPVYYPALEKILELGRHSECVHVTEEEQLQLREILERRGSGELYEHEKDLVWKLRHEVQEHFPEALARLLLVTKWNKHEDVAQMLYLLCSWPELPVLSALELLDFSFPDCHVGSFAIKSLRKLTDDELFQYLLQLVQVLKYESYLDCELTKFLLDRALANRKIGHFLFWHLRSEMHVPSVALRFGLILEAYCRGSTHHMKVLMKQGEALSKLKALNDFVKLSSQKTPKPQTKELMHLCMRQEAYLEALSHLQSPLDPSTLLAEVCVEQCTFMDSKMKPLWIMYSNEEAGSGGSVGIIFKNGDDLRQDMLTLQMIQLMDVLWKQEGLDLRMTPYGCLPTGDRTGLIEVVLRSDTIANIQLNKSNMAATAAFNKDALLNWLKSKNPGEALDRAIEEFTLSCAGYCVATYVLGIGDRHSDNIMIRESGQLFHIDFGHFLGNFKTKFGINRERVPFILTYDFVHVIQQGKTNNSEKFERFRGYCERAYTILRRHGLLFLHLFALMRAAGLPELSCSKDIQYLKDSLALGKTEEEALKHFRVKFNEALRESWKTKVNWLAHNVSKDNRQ
T1 sequence (P27986 whole entry partner): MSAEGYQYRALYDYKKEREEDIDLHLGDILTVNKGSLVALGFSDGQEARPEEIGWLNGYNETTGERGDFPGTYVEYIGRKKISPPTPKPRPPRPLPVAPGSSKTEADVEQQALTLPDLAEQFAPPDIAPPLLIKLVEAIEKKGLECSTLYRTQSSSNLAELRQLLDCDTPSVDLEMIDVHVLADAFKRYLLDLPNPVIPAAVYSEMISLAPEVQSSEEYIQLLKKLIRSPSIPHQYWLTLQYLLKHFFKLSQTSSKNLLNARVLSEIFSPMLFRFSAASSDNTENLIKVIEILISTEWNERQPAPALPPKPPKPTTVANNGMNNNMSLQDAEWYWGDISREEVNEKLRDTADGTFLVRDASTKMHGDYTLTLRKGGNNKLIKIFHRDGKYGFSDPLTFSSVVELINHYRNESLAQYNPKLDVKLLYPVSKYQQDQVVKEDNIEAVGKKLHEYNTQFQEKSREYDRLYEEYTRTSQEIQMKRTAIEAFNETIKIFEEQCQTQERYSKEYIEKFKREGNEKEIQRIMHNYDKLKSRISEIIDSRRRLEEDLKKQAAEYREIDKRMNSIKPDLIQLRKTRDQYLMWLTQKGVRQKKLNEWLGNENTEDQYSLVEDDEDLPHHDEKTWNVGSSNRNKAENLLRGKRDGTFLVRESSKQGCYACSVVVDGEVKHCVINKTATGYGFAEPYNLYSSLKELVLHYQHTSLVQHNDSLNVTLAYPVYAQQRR

Structure (SMILES)	IC50 [1]	IC50 (lymphoma cell SU-DHL-6)
C[C@H](Nc1nc(N)nc(N)c1C#N)c1cn2ncc(Cl)c2nc1-c1cccc(F)c1 [Example 3, (S)-2,4-diamino-6-(1-(3-chloro-5-(3-fluorophenyl)pyrazolo[1,5-a]pyrimidin-6-yl)ethylamino)pyrimidin-5-carbonitrile]	< 20 nM	< 20 nM
C[C@H](Nc1ncnc(N)c1C#N)c1cn2ncc(Cl)c2nc1-c1cccc(F)c1 [Example 4, (S)-4-amino-6-(1-(3-chloro-5-(3-fluorophenyl)pyrazolo[1,5-a]pyrimidin-6-yl)ethylamino)pyrimidin-5-carbonitrile]	< 20 nM	20 to 100 nM
Cc1nc(N)nc(N[C@@H](C)c2cn3ncc(Cl)c3nc2-c2ccccc2)c1C#N [Example 5, (S)-2-amino-4-((1-(3-chloro-5-phenylpyrazolo[1,5-a]pyrimidin-6-yl)ethyl)amino)-6-methylpyrimidin-5-carbonitrile]	< 20 nM	20 to 100 nM

Other lines, results leading:

IC50 [1]	IC50 (lymphoma cell SU-DHL-6)	Structure (SMILES)
< 20 nM	20 to 100 nM	C[C@H](Nc1ncnc(N)c1C#N)c1cn2ncc(Cl)c2nc1-c1ccccc1 [Example 1, (S)-4-amino-6-(1-(3-chloro-5-phenylpyrazolo[1,5-a]pyrimidin-6-yl)ethylamino) pyrimidin-5-carbonitrile]
< 20 nM	< 20 nM	C[C@H](Nc1nc(N)nc(N)c1C#N)c1cn2ncc(Cl)c2nc1-c1ccccc1 [Example 2, (S)-2,4-diamino-6-(1-(3-chloro-5-phenylpyrazolo[1,5-a]pyrimidin-6-yl)ethylamino)pyrimidin-5-carbonitrile]

— patent publication US10702531B2, “Pyrazolopyrimidine compound as PI3K inhibitor and use thereof” (Shenzhen Bo Li Jian Medicine Co., Ltd., priority 2016, dated 2020)
